The source of these data is PubChem BioAssay (NCI).

Test systems include A498 renal; A549 NSCLC; CAKI-1 renal; COLO 205 colon; HCT-15 colon; HOP-92 NSCLC; OVCAR-5 ovarian; SF-268 CNS; SK-MEL-2 melanoma; SN12C renal.
What all share (test): NCI anticancer screen, dose series, 48 h

Values joined by “and” are separate entries in the source; they are usually repeats but may differ in a detail not shown here. Identical values can stand only once.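 Cultured in 96-well plates, cells were exposed to test compound for 48 hours across five concentrations. GI50: concentration for 50% inhibition of growth. The concentration for full growth arrest is given as TGI.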

Turning to `COC(=O)Nc1nc2ccc(C(=O)c3cccs3)cc2[nH]1`, the GI50 was 203 nM in the assay with A498 renal; 0.239 µM in the assay on A549 NSCLC; 232 nM in the assay on CAKI-1 renal; 106 nM with HCT-15 colon; over 100000 nM in the assay with HOP-92 NSCLC; 545 nM with OVCAR-5 ovarian. Also, the GI50 in the assay on SF-268 CNS was 452 nM; in the assay on SK-MEL-2 melanoma, 20000 nM; in the assay on SN12C renal it was 729 nM. Besides, the TGI in the assay with A498 renal is 1.58 µM; with A549 NSCLC it was 55.8 µM and > 100 µM; in the assay on CAKI-1 renal, 56.3 µM and > 100 µM; with COLO 205 colon, 2.09 µM; in the assay with OVCAR-5 ovarian, over 100 µM; in the assay with SF-268 CNS it was 60.7 µM and > 100 µM. The TGI in the assay on SK-MEL-2 melanoma is 12.1 µM and > 100 µM; in the assay on SN12C renal it was 32.9 µM and > 100 µM.
`Cc1nc2sc(C(=O)Nc3ccccc3)c(N)c2cc1C(=O)c1ccccc1`: the GI50 in the assay on A498 renal is 216 nM; in the assay on A549 NSCLC, 0.853 µM; in the assay with CAKI-1 renal, 3290 nM; in the assay on COLO 205 colon it was 1860 nM; with HCT-15 colon, 2190 nM; in the assay on HOP-92 NSCLC, 9470 nM. Besides, the GI50 with OVCAR-5 ovarian is 2900 nM; with SF-268 CNS, 3500 nM; in the assay on SK-MEL-2 melanoma, 2830 nM; in the assay with SN12C renal, 3010 nM. Besides, the TGI with A498 renal was 3.72 µM; in the assay with A549 NSCLC it was over 50 µM; with CAKI-1 renal it was over 50 µM; in the assay on COLO 205 colon, 7.55 µM; in the assay on HCT-15 colon, over 50 µM; in the assay on HOP-92 NSCLC, over 50 µM. The TGI in the assay with OVCAR-5 ovarian, in the assay on SF-268 CNS, with SK-MEL-2 melanoma and in the assay on SN12C renal was over 50 µM throughout.
With `CN(C)Cc1cc(C(C)(C)C)cc(CN(C)C)c1O`, the TGI with A498 renal, in the assay with A549 NSCLC, with CAKI-1 renal, in the assay with COLO 205 colon, in the assay on HCT-15 colon and in the assay on HOP-92 NSCLC was over 100 µM each time. Moreover, the TGI in the assay on OVCAR-5 ovarian, with SF-268 CNS, with SK-MEL-2 melanoma and in the assay with SN12C renal was over 100 µM in each case.
`C=C1C(=O)OC2(C)CCC1CC1OC1(C)CCC=C(C)CCC2O` (stereo not given): the TGI in the assay on A498 renal, in the assay with A549 NSCLC, in the assay on CAKI-1 renal, in the assay on COLO 205 colon, in the assay on HCT-15 colon and in the assay on HOP-92 NSCLC was over 100 µM in each case. The TGI in the assay with OVCAR-5 ovarian, with SF-268 CNS, in the assay with SK-MEL-2 melanoma and with SN12C renal was over 100 µM each time.
For `COc1ccc(/C=C2/CSC/C(=C/c3ccc(OC)c(OC)c3)C2=O)cc1OC`, the TGI is 15.3 µM in the assay on A498 renal; 8.39 µM with A549 NSCLC; 12.8 µM with CAKI-1 renal; 6.28 µM in the assay with COLO 205 colon; 3.46 µM with HCT-15 colon; 43.7 µM in the assay with HOP-92 NSCLC. In addition, the TGI with OVCAR-5 ovarian was 12.7 µM; in the assay with SF-268 CNS, 18.4 µM; with SK-MEL-2 melanoma, 7.61 µM; with SN12C renal it was 4.13 µM.
As for `COc1cc2c(=O)n(CC3CCCCC3)c3c4cc[nH]c4ncc3c2cc1OC`, the GI50 with A498 renal was 86 nM; in the assay with A549 NSCLC, 5 µM; in the assay on CAKI-1 renal, 1190 nM; in the assay with COLO 205 colon, 1670 nM; with HCT-15 colon it was 1690 nM; in the assay on HOP-92 NSCLC, 137 nM. For the same compound, the GI50 was 1740 nM in the assay with OVCAR-5 ovarian, 1400 nM with SF-268 CNS, 8690 nM in the assay with SK-MEL-2 melanoma and 1460 nM with SN12C renal. For the same compound, the TGI was 3.06 µM with A498 renal; 16.9 µM in the assay on A549 NSCLC; 7.39 µM with CAKI-1 renal; 11.7 µM in the assay on COLO 205 colon; over 50 µM with HCT-15 colon; 2.78 µM in the assay on HOP-92 NSCLC. Besides, the TGI stood at 24.2 µM with OVCAR-5 ovarian, 13.9 µM with SF-268 CNS, 41.7 µM in the assay on SK-MEL-2 melanoma and 11.6 µM in the assay on SN12C renal.
Regarding `CCN1CCC(O)(/C=C/c2ccccc2)C(C(=O)/C=C/c2ccccc2)C1` (stereo not given), the TGI with A498 renal was determined as 18.4 µM; in the assay on A549 NSCLC, 16.8 µM; in the assay with CAKI-1 renal, 6.44 µM; with COLO 205 colon, 3.49 µM; in the assay on HCT-15 colon it was 3.84 µM; in the assay with HOP-92 NSCLC it was 8.76 µM. The TGI stood at 8.38 µM in the assay on OVCAR-5 ovarian, 7.36 µM in the assay with SF-268 CNS, 7.25 µM in the assay on SK-MEL-2 melanoma and 3.7 µM in the assay on SN12C renal.
Consider `CNc1nc(-c2ccc3c(N)n[nH]c3c2)cc(N2C[C@@H](C(=O)NC3CCCCC3)CC[C@H]2C)n1`, for which the GI50 with A498 renal was 301 nM; with A549 NSCLC it was 3.37 µM; with CAKI-1 renal it was 1140 nM; in the assay with COLO 205 colon it was 1540 nM; with HCT-15 colon it was 4330 nM; in the assay with HOP-92 NSCLC it was 189 nM. In addition, the GI50 in the assay with OVCAR-5 ovarian was 3430 nM; in the assay on SF-268 CNS it was 2980 nM; in the assay with SK-MEL-2 melanoma it was 1180 nM; in the assay on SN12C renal, 3040 nM. The TGI in the assay on A498 renal is 3.02 µM; in the assay on A549 NSCLC, 20.8 µM; in the assay on CAKI-1 renal it was 20.6 µM; with COLO 205 colon, 12 µM; in the assay with HCT-15 colon, 19.4 µM; in the assay on HOP-92 NSCLC, 3.99 µM. The TGI with OVCAR-5 ovarian was found to be 16.8 µM; with SF-268 CNS, 19 µM; in the assay on SK-MEL-2 melanoma, 8.13 µM; in the assay on SN12C renal it was 20.2 µM.
With `N#CC(C#N)C(c1ccccc1)c1ccccc1`, the TGI in the assay with A498 renal, in the assay on A549 NSCLC, in the assay on CAKI-1 renal, in the assay with COLO 205 colon, with HCT-15 colon and with HOP-92 NSCLC was over 100 µM in each case. Moreover, the TGI in the assay on OVCAR-5 ovarian, in the assay on SF-268 CNS, with SK-MEL-2 melanoma and in the assay with SN12C renal was over 100 µM throughout.
Regarding `O=C(/C=C/c1ccc(Cl)cc1Cl)c1ccc(Cl)cc1Cl`, the GI50 in the assay on A498 renal is 20700 nM; in the assay on A549 NSCLC, 19.9 µM; with CAKI-1 renal, 36000 nM; in the assay with COLO 205 colon, 20800 nM; in the assay with HCT-15 colon, 14400 nM; in the assay with HOP-92 NSCLC, 50800 nM. The GI50 in the assay with OVCAR-5 ovarian is 21700 nM; in the assay with SF-268 CNS, over 63300 nM; in the assay with SK-MEL-2 melanoma it was 1630 nM. Also, the TGI is 48.5 µM with A498 renal; 47.2 µM in the assay with A549 NSCLC; over 92.8 µM in the assay with CAKI-1 renal; over 65.4 µM in the assay on COLO 205 colon; 31 µM in the assay with HCT-15 colon; over 76.1 µM with HOP-92 NSCLC. The TGI in the assay on OVCAR-5 ovarian is 49.1 µM; with SF-268 CNS it was over 100 µM; in the assay with SN12C renal, 24.8 µM.
For `CS(=O)(=O)CCNCc1ccoc1-c1ccc2ncnc(Nc3ccc(OCc4ccccc4)cc3)c2c1`, the GI50 in the assay on A498 renal was 20500 nM; in the assay on A549 NSCLC, over 25 µM; with CAKI-1 renal, 1780 nM; in the assay with COLO 205 colon it was 24800 nM; in the assay on HCT-15 colon, over 25000 nM; with HOP-92 NSCLC it was 1980 nM. Besides, the GI50 in the assay on OVCAR-5 ovarian, in the assay with SF-268 CNS, in the assay with SK-MEL-2 melanoma and in the assay on SN12C renal was over 25000 nM in each case. The TGI with A498 renal, in the assay on A549 NSCLC, in the assay on CAKI-1 renal, in the assay on COLO 205 colon, in the assay with HCT-15 colon and in the assay with HOP-92 NSCLC was over 25 µM throughout. Further, the TGI in the assay with OVCAR-5 ovarian, in the assay on SF-268 CNS, with SK-MEL-2 melanoma and in the assay on SN12C renal was over 25 µM each time.
In the case of `CCCC(=O)OC(OC(=O)CCC)c1ccc([N+](=O)[O-])o1`, the TGI in the assay with A498 renal was over 100 µM; with A549 NSCLC it was over 100 µM; in the assay on CAKI-1 renal, 38.4 µM; in the assay with COLO 205 colon, 54.9 µM; with HCT-15 colon, 43.4 µM; with HOP-92 NSCLC it was 56.3 µM. Also, the TGI with OVCAR-5 ovarian was 39.6 µM; with SF-268 CNS, over 100 µM; in the assay on SK-MEL-2 melanoma it was 86.2 µM; in the assay with SN12C renal, 31.3 µM.
On to `C[C@H]1CC[C@@H]2[C@@H](C)[C@H]3[C@H](C[C@H]4[C@@H]5CC=C6C[C@@H](O)CC[C@]6(C)[C@H]5CC[C@]34C)N2C1`, for which the TGI in the assay with A498 renal is 41.7 µM; in the assay on A549 NSCLC, over 100 µM; with CAKI-1 renal, over 100 µM; with COLO 205 colon it was 39.2 µM; in the assay with HCT-15 colon, over 100 µM; in the assay with HOP-92 NSCLC it was 58.3 µM. In addition, the TGI with OVCAR-5 ovarian, in the assay on SF-268 CNS, in the assay on SK-MEL-2 melanoma and in the assay with SN12C renal was over 100 µM each time.
Turning to `O=S(=O)(Nc1ccc(Cl)c(Cl)c1)c1ccc(-c2cnc(C3CC3)o2)cc1`, the GI50 in the assay with A498 renal is 273 nM; in the assay with A549 NSCLC, 0.672 µM; in the assay with CAKI-1 renal it was 384 nM; with COLO 205 colon, 501 nM; in the assay with HCT-15 colon, 405 nM; in the assay with HOP-92 NSCLC, 367 nM. The GI50 was 2320 nM with OVCAR-5 ovarian, 1260 nM in the assay on SF-268 CNS, 2430 nM with SK-MEL-2 melanoma and 761 nM with SN12C renal. The TGI in the assay with A498 renal came to 2.9 µM; in the assay with A549 NSCLC it was 17.2 µM; with CAKI-1 renal, 16.7 µM; in the assay with COLO 205 colon it was 3.36 µM; with HCT-15 colon it was 15.7 µM; in the assay on HOP-92 NSCLC, 12.5 µM. The TGI with OVCAR-5 ovarian came to 17.3 µM; in the assay with SF-268 CNS, 23.8 µM; with SK-MEL-2 melanoma, 24.4 µM; with SN12C renal it was 17.3 µM.
